Assays:
human VR1 [1] = target: T1, human VR1 (Homo sapiens, UniProt Q8NER1); experiment: VR1 capsaicin-based assay in HEK293-EcR cells (FLIPR, Fluo-4); format: cell-based
T1 construct: expressed in transfected cells
Description: Human VR1 cloning. Human spinal cord RNA (commercially available from Clontech, Palo Alto, Calif.) was used. Reverse transcription was conducted on 1.0 μg total RNA using Thermoscript Reverse Transcriptase (commercially available from Invitrogen, Carlsbad, Calif.) and oligo dT primers as detailed in its product description. Reverse transcription reactions were incubated at 55° C. for 1 h, heat-inactivated at 85° C. for 5 min, and RNase H-treated at 37° C. for 20 min. Human VR1 cDNA sequence was obtained by comparison of the human genomic sequence, prior to annotation, to the published rat sequence. Intron sequences were removed and flanking exonic sequences were joined to generate the hypothetical human cDNA. […] On the day of assay, cells were loaded with Fluo-4 (a calcium-sensitive dye that is commercially available from Molecular Probes, Eugene, Oreg.) and CAP-mediated calcium influx was measured using a Fluorometric Imaging Plate Reader (“FLIPR”) (commercially available from Molecular Devices Corp., Sunnyvale, Calif.) as described below. […]

human VR1 [2] = target: T1, human VR1; experiment: VR1 pH-based assay in HEK293-EcR cells (FLIPR, Fluo-4); format: cell-based; conditions: activation by agonist buffer giving pH 5.5, human VR1 in PonA-induced HEK293-EcR cells, 50 pM to 3 μM, n+3
Description: Human VR1 cloning. Human spinal cord RNA (commercially available from Clontech, Palo Alto, Calif.) was used. Reverse transcription was conducted on 1.0 μg total RNA using Thermoscript Reverse Transcriptase (commercially available from Invitrogen, Carlsbad, Calif.) and oligo dT primers as detailed in its product description. Reverse transcription reactions were incubated at 55° C. for 1 h, heat-inactivated at 85° C. for 5 min, and RNase H-treated at 37° C. for 20 min. Human VR1 cDNA sequence was obtained by comparison of the human genomic sequence, prior to annotation, to the published rat sequence. Intron sequences were removed and flanking exonic sequences were joined to generate the hypothetical human cDNA. Primers flanking the coding region of human VR1 were designed as follows: forward primer, [NT]; and reverse primer, [NT] of VR1 was performed on one tenth of the Reverse transcription reaction mixture using Expand Long Template Polymerase and Expand Buffer 2 in a final volume of 50 μL according to the manufacturer's instructions (Roche Applied Sciences, Indianapolis, Ind.). After denaturation at 94° C. for 2 min PCR amplification was performed for 25 cycles at 94° C. for 15 sec, 58° C. for 30 sec, and 68° C. for 3 min followed by a final incubation at 72° C. for 7 min to complete the amplification. […]

T1 sequence (Q8NER1 whole entry): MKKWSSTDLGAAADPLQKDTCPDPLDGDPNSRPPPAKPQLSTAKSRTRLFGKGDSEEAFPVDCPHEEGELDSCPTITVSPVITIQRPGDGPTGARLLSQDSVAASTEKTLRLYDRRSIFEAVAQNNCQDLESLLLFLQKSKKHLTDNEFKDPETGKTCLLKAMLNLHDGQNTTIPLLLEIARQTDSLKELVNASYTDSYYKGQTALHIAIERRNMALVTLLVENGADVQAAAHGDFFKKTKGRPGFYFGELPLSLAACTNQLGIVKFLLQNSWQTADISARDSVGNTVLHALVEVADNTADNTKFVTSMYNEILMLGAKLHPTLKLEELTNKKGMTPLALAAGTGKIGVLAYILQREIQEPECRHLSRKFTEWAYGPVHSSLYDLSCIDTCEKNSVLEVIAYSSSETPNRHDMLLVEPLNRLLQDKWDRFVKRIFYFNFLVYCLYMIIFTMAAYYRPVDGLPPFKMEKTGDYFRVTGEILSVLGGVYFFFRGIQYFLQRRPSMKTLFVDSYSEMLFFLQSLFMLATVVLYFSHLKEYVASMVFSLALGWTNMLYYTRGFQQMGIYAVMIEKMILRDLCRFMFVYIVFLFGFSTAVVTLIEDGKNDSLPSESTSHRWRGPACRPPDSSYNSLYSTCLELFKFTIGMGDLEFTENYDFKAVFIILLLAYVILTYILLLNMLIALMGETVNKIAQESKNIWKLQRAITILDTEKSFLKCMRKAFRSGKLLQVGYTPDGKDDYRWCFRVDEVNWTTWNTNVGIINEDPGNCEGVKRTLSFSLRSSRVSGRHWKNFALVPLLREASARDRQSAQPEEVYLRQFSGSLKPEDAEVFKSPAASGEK

- IC50 (human VR1 [1]; capsaicin-based assay, human VR1 activated by capsaicin (400 nM) in PonA-induced HEK293-EcR cells, 50 pM to 3 μM, n+3): 59.4 ± 13.1 nM
- IC50 (human VR1 [2]): 197 ± 39.8 nM
SMILES: C[C@@H]1CN(c2ncccc2Cl)CCN1/C(=N\C#N)NCCC1=CCCCC1 [Compound DEY]
- binding to and modulation of human VR1 (conclusion in words) (human VR1 [1]; conclusion from the pH-based assay and the capsaicin-based assay): binds to and modulates the activity of human VR1

Reference: patent publication US7279493B2, “Therapeutic agents useful for treating pain” (Euro-Celtique S.A., priority 2002, dated 2007)
